Like-named read-outs stand apart in the source and are kept apart here.
Columns and labels:
[1] = clinical; conditions: human, in vivo
[2] = system: human VCaP (Vertebral-Cancer of the Prostate) tumor xenografts; test: 3-stage efficacy study in castrated mice bearing VCaP tumor xenografts; conditions: for change in body weight: Stage I treatment period, FIG. 16; for Tumor volume, Day 0 / Tumor volume, Day 43 (Stage I) / Tumor volume, Day 92 (Stage III): mean ± SEM; for Tumor volume, Day 92 (Stage III): abiraterone 100 mg/kg or Compound (I-g) 10 mg/kg once daily for 19 days
[3] = Phase I dose escalation safety
Source text: A traditional 3+3 dose escalation design was implemented. […] Dose increases were dependent upon toxicities.

[4] = system: patient-derived xenograft (PDX) model TM00298; test: Patient-derived xenograft (PDX) model TM00298; type: in vivo, NSG (NOD scid IL2Ry) mice; conditions: Compound (I-g) 10 mg/kg/day PO, enzalutamide 20 mg/kg/day PO
Method: The TM00298 PDX was grown in intact (non-castrate) male NSG (NOD scid IL2Ry) mice.

[5] = system: mCRPC tumor; test: RECIST response by CT scan in mCRPC patient; type: in vivo, human; conditions: Patient 20, 140 mg/day, after 4 cycles
[6] = not given; remark: listed apart in the source
[7] = system: CYP3A4; test: In vitro CYP3A4 induction; conditions: in vitro data
[8] = 28-day toxicology study in rats
[9] = system: patient-derived xenograft (PDX) model TM00298; conditions: enzalutamide treatment; cited from earlier work
[10] = Stage I, Compound (I-g) 3 mg/kg, abiraterone 100 mg/kg or combination, oral gavage once daily
[11] = Stage III, abiraterone-resistant tumors
[12] = Stage III, abiraterone-resistant tumors, abiraterone 100 mg/kg or Compound (I-g) 10 mg/kg once daily, n = 4

C[C@]12CC[C@H](O)CC1=CC[C@@H]1[C@@H]2CC[C@]2(C)C(c3cccnc3)=CC[C@@H]12 [Abiraterone, (3S,8R,9S,10R,13S,14S)-10,13-dimethyl-17-(pyridin-3-yl)-2,3,4,7,8,9,10,11,12,13,14,15-dodecahydro-1H-cyclopenta[a]phenanthren-3-ol, reference compound]
reduction in the average abiraterone AUC exposure (1000 mg abiraterone given with 420 mg Compound (I-g), preliminary): 22% | drug-drug interaction (DDI) (abiraterone with Compound (I-g) vs abiraterone alone): no significant DDI was observed | AUC ([1]; Abiraterone AUC0-tau, mean): 417 ng·h/mL | Cmax ([1]; Abiraterone Cmax, mean): 117 ng/mL | change in body weight [2]: no significant change in body weight was observed | TGI (%) vs vehicle (Stage I) ([2]; Stage I, Compound (I-g) 3 mg/kg, abiraterone 100 mg/kg or combination, oral gavage once daily, 43 days): 60% | Tumor volume, Day 0 [2, 10]: 135 ± 10 mm^3 | Tumor volume, Day 43 (Stage I) [2, 10]: 262 ± 39 mm^3 | Tumor volume, Day 92 (Stage III) [2, 11]: 467 ± 85 mm^3 | Tumor volume, Day 0 [2, 12]: 365 ± 44 mm^3

N#Cc1ccc(O[C@H]2CC[C@H](NC(=O)c3ccc(N4CCC(CN5CCN(c6cc7c(cc6F)C(=O)N(C6CCC(=O)NC6=O)C7=O)CC5)CC4)nn3)CC2)cc1Cl (some centres unmarked) [Compound (I-g)]
adverse events at grades 2, 3, or 4 ([3]; 35 mg/day cohort (n=3)): no adverse events at grades 2, 3, or 4 were observed | dose limiting toxicity ([3]; 35 mg/day cohort (n=3)): no dose limiting toxicity was observed | dose limiting toxicity ([3]; 70 mg/day cohort (n=4)): no dose limiting toxicity was observed | grade 2 adverse events ([3]; 70 mg/day cohort (n=4)): One patient experienced grade 2 adverse events (diarrhea, fatigue, vomiting) | grade 3 adverse events ([3]; 70 mg/day cohort (n=4)): One patient experienced a grade 3 adverse event (anemia) that was unrelated to the administration of compound (I-g) | dose limiting toxicity ([3]; 140 mg/day cohort (n=8)): no dose limiting toxicity was observed | patients with grade 2 adverse events ([3]; 140 mg/day cohort (n=8)): 50 % of the patients | dose-limiting toxicity ([3]; 280 mg/day cohort (n=7)): one patient experienced dose-limiting toxicity and renal failure | patients with grade 2 or less adverse events ([3]; 280 mg/day cohort (n=7)): 5 patients | reduction of plasma PSA ([4]; vs vehicle): 93% | TGI ([4]; after 20 days, intact male NSG mice): 100% | tumor response on CT scan [5]: RECIST response | gastrointestinal alterations ([6]; dogs, 3, 10, 30 mg/kg oral once daily, 28 days): Gastrointestinal alterations were observed at all dose levels (including vehicle alone) | prostate weights ([6]; male dogs): decreased prostate weights | AUC [1]: 9120 ng·h/mL | AUC(0-t) [1]: 3030 ng·h/mL | Cmax [1]: 451 ng/mL | Tmax [1]: 6 h | CYP3A4 induction [7]: induces CYP3A4 | body weight and food consumption ([8]; 80 mg/kg female rat cohort): lost body weight and consumed less food | reversibility of findings (liver hypertrophy, femur physis thickening) ([8]; male high-dose rats, 14-day recovery): fully reversible | prostate weights ([8]; male rats): decreased prostate weights | tolerability ([8]; rats, oral once daily 28 days, males 20, 60, 120 mg/kg, females 20, 40, 120 mg/kg): well tolerated at all doses, with the exception of the 80 mg/kg female cohort | change in body weight [2]: no significant change in body weight was observed | Tumor volume, Day 0 [2, 10]: 147 ± 8{grave over ( )} mm^3 | Tumor volume, Day 43 (Stage I) [2, 10]: 231 ± 26 mm^3 | TGI (%) vs Abiraterone (Stage III) ([2]; Stage III, abiraterone-resistant tumors, Compound (I-g) 10 mg/kg once daily for 19 days): growth inhibition was observed | Tumor volume, Day 92 (Stage III) [2, 11]: 305 ± 23 mm^3 | Tumor volume, Day 0 [2, 12]: 330 ± 15 mm^3

CNC(=O)c1ccc(N2C(=S)N(c3ccc(C#N)c(C(F)(F)F)c3)C(=O)C2(C)C)cc1F [enzalutamide, reference compound]
PSA reductions, published report (Jin 2017) [9]: modest PSA reductions were observed | TGI, published report (Jin 2017) [9]: no TGI

From patent publication US20250248999A1, “BAVDEGALUTAMIDE AND COMBINATIONS THEREOF FOR USE IN TREATING PROSTATE CANCER” (Arvinas Operations, Inc., priority 2022, published 2025)
